Experimental data from patent publication EP0115929A1, “Novel organic platinum complex and process for the preparation thereof” (priority 1983, dated 1984).

What was measured:
Leukemia L-1210 = assay: Effect on life span of mice implanted with Leukemia L-1210 (Method B); type: in vivo; details: for ILS30: denominator in brackets of the therapeutic index cell; for ILS30 / OD: dose column in mg/kg/day; for 60-day survivors: survivors/mice in group; for OD: numerator in brackets of the therapeutic index cell; for increase in the life span of mice: dose of 50 mg/kg/day
Procedure: […] test compound was begun 24 hours after the inoculation of the leukemic cells and performed once a day for 5 days. The survival days of the treated mice were observed.

[1] = tested on: Ehrlich ascites carcinoma; assay: Preventive effect against the growth of Ehrlich ascites carcinoma (Method A); type: in vivo, mice; details: for MTD: footnote *3 in image, dose column in mg/kg/day; for MED: footnote *4 in image, b22: minimum effective dose per day which causes 100 % inhibition, in mg/kg/day; for M.E.D.: minimum effective dose per day which causes 100 % inhibition of Ehrlich ascites carcinoma
Text: It may be useful to prolong the survival time of warm-blood .animals, including human,.afflicted with tumors and/or minimize the growth of tumors in said animals. […] The compound of the present invention is also useful for the treatment of various other tumors such as prostate tumor, orchis tumor, ovary tumor, malignant lymphoma, leukemia, breast cancer and the like.

[2] = dose 1.56 mg/kg/day, (C - T)/C x 100
[3] = dose 3.12 mg/kg/day, (C - T)/C x 100
[4] = dose 6.25 mg/kg/day, (C - T)/C x 100
[5] = dose 25 mg/kg/day, (C - T)/C x 100
[6] = dose 100 mg/kg/day, (C - T)/C x 100
[7] = dose 200 mg/kg/day, cell prints toxicity instead of inhibition (footnote *6 in image)

Row | Substance | ILS30 (Leukemia L-1210) | ILS (%) (Leukemia L-1210; dose 1.56 mg/kg/day) | 60-day survivors (Leukemia L-1210; dose 1.56 mg/kg/day) | ILS (%) (Leukemia L-1210; dose 3.12 mg/kg/day) | 60-day survivors (Leukemia L-1210; dose 3.12 mg/kg/day) | ILS (%) (Leukemia L-1210; dose 6.25 mg/kg/day) | 60-day survivors (Leukemia L-1210; dose 6.25 mg/kg/day) | ILS (%) (Leukemia L-1210; dose 12.5 mg/kg/day) | 60-day survivors (Leukemia L-1210; dose 12.5 mg/kg/day) | ILS (%) (Leukemia L-1210; dose 25 mg/kg/day) | 60-day survivors (Leukemia L-1210; dose 25 mg/kg/day) | ILS (%) (Leukemia L-1210; dose 50 mg/kg/day) | 60-day survivors (Leukemia L-1210; dose 50 mg/kg/day) | ILS (%) (Leukemia L-1210; dose 100 mg/kg/day) | 60-day survivors (Leukemia L-1210; dose 100 mg/kg/day) | OD (Leukemia L-1210) | increase in the life span of mice (Leukemia L-1210) | Inhibition rate (%) [1, 2] | Inhibition rate (%) [1, 3] | Inhibition rate (%) [1, 4] | other results
1 | cis-Dioxamato(2-aminomethylpyridine) platinum (II) [Compound 3] | 1.65 | 28.6% | 0/4 | 47.1% | 0/4 | 85.7% | 0/4 | 90.0% | 0/4 | 100.0% | 0/4 | >607.1% | 3/4 | >757.1% | 4/4 | 100 | – | – | – | – | –
2 | cis-Oxalato(2-aminomethylpyridine) platinum (II) [Compound 1] | 1.3 | 33.8% | 0/4 | 52.1% | 0/4 | 80.3% | 0/4 | >269.0% | 1/4 | >463.4% | 2/4 | >745.1% | 4/4 | >745.1% | 4/4 | 100 | more than 745% | 21.9% | 100% | 100% | ILS (%) (Leukemia L-1210; dose 0.78 mg/kg/day): 19.7%; 60-day survivors (Leukemia L-1210; dose 0.78 mg/kg/day): 0/4; Inhibition rate (%) [1, 5]: 100%; Inhibition rate (%) [1, 6]: 100%; Inhibition rate (%) [1, 7]: Toxic(5/5)^*6; MTD [1]: 100; MED [1]: 3.12; M.E.D. [1]: 3.12 mg/kg/day
3 | cis-Malonato(2-aminomethylpyridine) platinum (II) [Compound 2] | 1.8 | 25.7% | 0/4 | 47.1% | 0/4 | 61.4% | 0/4 | 92.9% | 0/4 | 185.7% | 0/4 | >757.1% | 4/4 | >757.1% | 4/4 | 100 | more than 745% | 12.9% | 100% | 100% | Inhibition rate (%) [1, 5]: 100%; Inhibition rate (%) [1, 6]: 100%; Inhibition rate (%) [1, 7]: Toxic(5/5)^*6; MTD [1]: 100; MED [1]: 3.12; M.E.D. [1]: 3.12 mg/kg/day
